One test deals with T1, 5-HT1A receptor (Rattus norvegicus, UniProt P19327).
T1 construct: Rat hippocampi were homogenized in 50 volumes of ice-cold 50 mM Tris-HCl pH 7.4; from tissue; host or cells: rat hippocampus membranes
T1 sequence (P19327 1-422): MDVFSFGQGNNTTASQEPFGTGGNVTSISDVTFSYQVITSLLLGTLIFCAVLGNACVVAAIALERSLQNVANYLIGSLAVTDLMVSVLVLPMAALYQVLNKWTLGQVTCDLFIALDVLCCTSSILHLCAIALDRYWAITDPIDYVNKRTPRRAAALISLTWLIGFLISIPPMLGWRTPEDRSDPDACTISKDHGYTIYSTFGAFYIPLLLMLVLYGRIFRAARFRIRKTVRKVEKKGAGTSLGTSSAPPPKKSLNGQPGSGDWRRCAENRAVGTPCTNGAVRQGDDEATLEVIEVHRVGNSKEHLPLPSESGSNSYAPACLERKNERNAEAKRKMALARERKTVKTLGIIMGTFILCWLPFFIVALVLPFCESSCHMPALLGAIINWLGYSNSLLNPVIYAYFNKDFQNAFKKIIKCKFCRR
The test can be described thus: [3H]8-OH-DPAT binding (5HT1A receptors), rat hippocampi. The following applies: 1 nM [3H]8-OH-DPAT, read-out: Binding affinity for the 5-HT1A receptor, Ki. Here is the method: [^3H]8-OH-DPAT binding (5HT1A receptors):
Rat hippocampi were homogenized in 50 volumes of ice-cold 50 mM Tris-HCl pH 7.4. The homogenates were centrifuged at 48,000 x g for 10 minutes, and the pellets were resuspended in the same volume of ice-cold buffer, incubated for 10 minutes at 37°C, centrifuged and resuspended two more times. The final pellets obtained were resuspended in 100 volumes of 50 mM Tris-HCl, pH 7.4, containing 0.1 % ascorbic acid and 10 µM pargyline. 1 ml samples were incubated for 30 min at 25°C with 1 nM [^3H]8-OH-DPAT, in absence or presence of different concentrations (10^-5 to 10^-10 M) of the test compound. Non-specific binding was determined in the presence of 10 µM 5-HT. The incubations were terminated by rapid filtration through Whatman GF/B filters using a Brandel cell harvester, after which the filters were washed with 3 x 3 ml of ice-cold buffer. The radioactivity retained on the filters was determined by liquid scintillation counting.

Test [1] relates to post-synaptic 5-HT1A receptor. Description: Inhibition of forepaw treading induced by 8-OH-DPAT in rats. The following applies: i.p., forepaw treading induced by 1 mg/kg s.c. 8-OH-DPAT. The test is classed as in vivo. The method, then:
Inhibition of forepaw treading induced by 8-OH-DPAT in rats:
Male Sprague-Dawley rats (150-175 g) obtained from Charles River (Italy), were housed in a climate-controlled room and maintained on a 12 h light/dark cycle with free access to food and water. On the day of experiment, rats were placed singly in clear plastic boxes. Reserpinised rats were treated with reserpine, 1 mg/kg s.c., 18-24 h before the test.
The appearance of the forepaw treading symptom induced by post-synaptic stimulation of the 5HT1A receptors was noted, and its intensity was scored using a ranked intensity scale in which: 0 = absent, 1 = equivocal, 2 = present and 3 = intense. Behavioural scores for each treated rat were accumulated over the time course (5 observation periods) and expressed as mean values of 8-10 rats.

The Ki is the dissociation constant of the complex between target and ligand, obtained from inhibition or displacement.

Structures are written as SMILES.

On to `O=C(C1CCCCC1)N(CCN1CCN(c2cccc3[nH]ccc23)CC1)c1ccccn1` [Compound B, N-{2-[4-(4-Indolyl)-1-piperazinyl]-ethyl}-N-(2-pyridyl)-cyclohexanecarboxamide], for which, at 5-HT1A receptor, the Ki was 0.13 nM.
As for `COc1ccccc1N1CCN(CCCCN2C(=O)c3ccccc3C2=O)CC1` [NAN-190, 1-(2-methoxyphenyl)-4-[4-(2-phthalimido)-butyl]-piperazine], in test [1] (normal rats), the “NORMAL RATS ID50” value is recorded as 700 (500-1000) µg/Kg. Besides, the “RESERPINIZED RATS ID50” value in test [1] (reserpinized rats) is reported as 2000 (1600-2400) µg/Kg. Also, the Ki at 5-HT1A receptor came out at 1.9 nM.

These data come from EP0906100B1, “USE OF 5-HT 1A? RECEPTOR ANTAGONISTS FOR THE TREATMENT OF URINARY INCONTINENCE” (RECORDATI S.A., priority 1996, dated 1997).
